The target in one data set is Menin-MLL (Homo sapiens (Human), UniProt O00255). In words: Determination of binding constants (Ki) to Menin-MLL (HTRF). The settings on record: HTRF, 0.25 nM H-FL-Menin, 3.2 nM FITC-MLL-4-43, 24 hr incubation; for Ki: read-out: Menin-MLL Ki HTRF Assay: Ki.
The target of a further data set is hERG (Homo sapiens (Human), UniProt Q12809). The data set is described as follows: Patch clamp assay (hERG tail currents, whole-cell). The settings on record: hERG transfected HEK 293 cells; for hERG % Remaining 30 μM: 30 μM compound; for hERG % Remaining 10 μM: 10 μM compound; for hERG % Remaining 1 μM: 1 μM compound; for hERG % Remaining 3 μM: 3 μM compound; for hERG % Remaining 100 μM: 100 μM compound. The class given is cell-based.
Chain of hERG (Q12809 whole entry): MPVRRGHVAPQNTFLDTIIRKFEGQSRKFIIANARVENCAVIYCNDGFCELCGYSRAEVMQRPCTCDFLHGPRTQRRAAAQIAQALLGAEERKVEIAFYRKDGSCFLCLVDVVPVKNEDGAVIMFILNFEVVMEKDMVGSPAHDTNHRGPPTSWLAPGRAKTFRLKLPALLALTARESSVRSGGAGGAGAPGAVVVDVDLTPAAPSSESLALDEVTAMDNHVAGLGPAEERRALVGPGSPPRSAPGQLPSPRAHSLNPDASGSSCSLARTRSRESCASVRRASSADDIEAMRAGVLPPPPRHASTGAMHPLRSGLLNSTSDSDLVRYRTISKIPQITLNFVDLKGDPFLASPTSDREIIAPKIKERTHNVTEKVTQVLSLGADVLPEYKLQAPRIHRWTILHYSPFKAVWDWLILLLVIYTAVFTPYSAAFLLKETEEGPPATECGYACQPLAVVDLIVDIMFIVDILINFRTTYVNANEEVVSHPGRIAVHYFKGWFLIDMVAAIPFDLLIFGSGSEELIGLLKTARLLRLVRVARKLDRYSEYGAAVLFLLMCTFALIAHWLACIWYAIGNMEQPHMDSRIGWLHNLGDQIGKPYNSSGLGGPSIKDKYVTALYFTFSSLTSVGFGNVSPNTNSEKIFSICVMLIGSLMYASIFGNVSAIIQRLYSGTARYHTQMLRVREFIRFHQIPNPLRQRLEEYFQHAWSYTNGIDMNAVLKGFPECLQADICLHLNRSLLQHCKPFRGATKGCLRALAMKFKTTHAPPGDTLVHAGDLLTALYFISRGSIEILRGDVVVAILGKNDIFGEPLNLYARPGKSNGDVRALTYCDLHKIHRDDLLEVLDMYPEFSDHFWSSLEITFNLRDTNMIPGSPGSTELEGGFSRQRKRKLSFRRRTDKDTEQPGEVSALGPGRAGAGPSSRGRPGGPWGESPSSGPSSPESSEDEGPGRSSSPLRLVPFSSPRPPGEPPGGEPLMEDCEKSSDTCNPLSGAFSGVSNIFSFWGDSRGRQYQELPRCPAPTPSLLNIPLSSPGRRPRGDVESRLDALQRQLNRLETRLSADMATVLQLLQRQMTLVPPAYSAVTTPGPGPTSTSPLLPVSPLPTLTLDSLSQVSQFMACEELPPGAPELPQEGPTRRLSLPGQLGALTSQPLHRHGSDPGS

Chain of Menin-MLL (O00255 whole entry): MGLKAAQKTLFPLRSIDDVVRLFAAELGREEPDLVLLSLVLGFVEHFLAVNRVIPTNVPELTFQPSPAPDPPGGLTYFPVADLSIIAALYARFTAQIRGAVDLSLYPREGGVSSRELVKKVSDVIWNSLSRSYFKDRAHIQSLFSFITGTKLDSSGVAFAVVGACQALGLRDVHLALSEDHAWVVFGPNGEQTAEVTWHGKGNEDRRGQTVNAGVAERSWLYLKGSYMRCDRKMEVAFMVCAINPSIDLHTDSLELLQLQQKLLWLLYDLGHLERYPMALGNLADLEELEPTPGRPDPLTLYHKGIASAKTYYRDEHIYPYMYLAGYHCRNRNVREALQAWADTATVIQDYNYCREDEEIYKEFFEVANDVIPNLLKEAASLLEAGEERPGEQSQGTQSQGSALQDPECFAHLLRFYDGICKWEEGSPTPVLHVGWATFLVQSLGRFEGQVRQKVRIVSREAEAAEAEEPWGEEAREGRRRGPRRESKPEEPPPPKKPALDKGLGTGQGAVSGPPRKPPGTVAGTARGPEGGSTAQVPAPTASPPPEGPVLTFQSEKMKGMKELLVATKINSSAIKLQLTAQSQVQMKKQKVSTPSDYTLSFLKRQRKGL

For the compound `CCNS(=O)(=O)N[C@@H]1CC[C@@H](CN2CCC3(CC2)CN(c2ncnnc2Oc2ccc(F)cc2C(=O)N(CC(F)(F)F)C(C)C)C3)OC1` (single isomer, unassigned) [Compound 193], on Menin-MLL, the Ki was under 0.001 µM. For the same compound, on hERG, the “hERG % Remaining 30 μM” value was “+++ (“+++” means ≥66%)” and the IC50 was at least 50 µM.

Consider `CCN(C(=O)c1cc(F)ccc1Oc1cncnc1N1CC2(CCN(C[C@@H]3CC[C@@H](NS(C)(=O)=O)CO3)CC2)C1)C(C)C` [Compound 1, N-ethyl-5-fluoro-N-isopropyl-2-((4-(7-(((2S,5R)-5-(methylsulfonamido)tetrahydro-2H-pyran-2-yl)methyl)-2,7-diazaspiro[3.5]nonan-2-yl)pyrimidin-5-yl)oxy)benzamide], for which, at Menin-MLL, the EC50 was under 0.05 µM and the inhibitory constant (Ki) was under 0.001 µM. Further, on hERG, the “hERG % Remaining 10 μM” value is “+++ (“+++” means ≥66%)”; the “hERG % Remaining 30 μM” value was “++ (“++” means ≥33% and <66%)”.

Regarding `CCN(C(=O)c1cc(F)ccc1Oc1cncnc1N1CC2(CCN(C[C@@H]3CC[C@@H](NS(=O)(=O)CC)CO3)CC2)C1)C(C)C` [Compound 2, N-ethyl-2-((4-(7-(((2S,5R)-5-(ethylsulfonamido)tetrahydro-2H-pyran-2-yl)methyl)-2,7-diazaspiro[3.5]nonan-2-yl)pyrimidin-5-yl)oxy)-5-fluoro-N-isopropylbenzamide], at Menin-MLL, the EC50 was under 0.05 µM and the Ki was under 0.001 µM. Besides, on hERG, the “hERG % Remaining 10 μM” value is recorded as “+++ (“+++” means ≥66%)” and the “hERG % Remaining 30 μM” value is given as “+++ (“+++” means ≥66%)”.

Consider `CCN(C(=O)c1cc(F)ccc1Oc1cncnc1N1CC2(CCN(C[C@@H]3CC[C@@H](NS(=O)(=O)C4CC4)CO3)CC2)C1)C(C)C` [Compound 4, 2-((4-(7-(((2S,5R)-5-(cyclopropanesulfonamido)tetrahydro-2H-pyran-2-yl)methyl)-2,7-diazaspiro[3.5]nonan-2-yl)pyrimidin-5-yl)oxy)-N-ethyl-5-fluoro-N-isopropylbenzamide], for which, at Menin-MLL, the EC50 is under 0.05 µM and the Ki is under 0.001 µM. Further, on hERG, the “hERG % Remaining 10 μM” value is “+++ (“+++” means ≥66%)”, the “hERG % Remaining 30 μM” value is “+++ (“+++” means ≥66%)” and the IC50 is at least 50 µM.

Take `CCN(C(=O)c1cc(F)ccc1Oc1cncnc1N1CC2(CCN(C[C@@H]3CC[C@@H](NS(=O)(=O)C4CCC4)CO3)CC2)C1)C(C)C` [Compound 6, 2-((4-(7-(((2S,5R)-5-(cyclobutanesulfonamido)tetrahydro-2H-pyran-2-yl)methyl)-2,7-diazaspiro[3.5]nonan-2-yl)pyrimidin-5-yl)oxy)-N-ethyl-5-fluoro-N-isopropylbenzamide]: on Menin-MLL, the EC50 was under 0.05 µM and the Ki is under 0.001 µM. Also, on hERG, the “hERG % Remaining 10 μM” value is reported as “+++ (“+++” means ≥66%)”; the “hERG % Remaining 30 μM” value was “++ (“++” means ≥33% and <66%)”.

For `CCN(C(=O)c1cc(F)ccc1Oc1cncnc1N1CC2(CCN(C[C@@H]3CC[C@@H](NC(=O)OC(C)(C)C)CO3)CC2)C1)C(C)C` [Compound 11, tert-butyl ((3R,6S)-6-((2-(5-(2-(ethyl(isopropyl)carbamoyl)-4-fluorophenoxy)pyrimidin-4-yl)-2,7-diazaspiro[3.5]nonan-7-yl)methyl)tetrahydro-2H-pyran-3-yl)carbamate], at Menin-MLL, the EC50 is under 0.05 µM and the Ki was under 0.001 µM. For the same compound, at hERG, the “hERG % Remaining 10 μM” value is reported as “+ (“+” means <33%)” and the “hERG % Remaining 30 μM” value is reported as “+ (“+” means <33%)”.

`CC(C)N(C(=O)c1cc(F)ccc1Oc1cncnc1N1CC2(CCN(C[C@@H]3CC[C@@H](NS(C)(=O)=O)CO3)CC2)C1)C(C)C` [Compound 12, 5-fluoro-N,N-diisopropyl-2-((4-(7-(((2S,5R)-5-(methylsulfonamido)tetrahydro-2H-pyran-2-yl)methyl)-2,7-diazaspiro[3.5]nonan-2-yl)pyrimidin-5-yl)oxy)benzamide]: on Menin-MLL, the EC50 is under 0.05 µM and the Ki is under 0.001 µM. At hERG, the “hERG % Remaining 1 μM” value is “+++ (“+++” means ≥66%)”, the “hERG % Remaining 3 μM” value is recorded as “+++ (“+++” means ≥66%)”, the “hERG % Remaining 10 μM” value is given as “+++ (“+++” means ≥66%)” and the “hERG % Remaining 30 μM” value is given as “+++ (“+++” means ≥66%)”. Besides, on hERG, the “hERG % Remaining 100 μM” value was “++ (“++” means ≥33% and <66%)”; the IC50 was at least 50 µM.

For the compound `CCS(=O)(=O)N[C@@H]1CC[C@@H](CN2CCC3(CC2)CN(c2ncncc2Oc2ccc(F)cc2C(=O)N(C(C)C)C(C)C)C3)OC1` [Compound 13, 2-((4-(7-(((2S,5R)-5-(ethylsulfonamido)tetrahydro-2H-pyran-2-yl)methyl)-2,7-diazaspiro[3.5]nonan-2-yl)pyrimidin-5-yl)oxy)-5-fluoro-N,N-diisopropylbenzamide], on Menin-MLL, the EC50 is under 0.05 µM and the Ki is under 0.001 µM. Further, at hERG, the “hERG % Remaining 1 μM” value is “+++ (“+++” means ≥66%)”; the “hERG % Remaining 3 μM” value is “+++ (“+++” means ≥66%)”; the “hERG % Remaining 10 μM” value is on record as “+++ (“+++” means ≥66%)”; the “hERG % Remaining 30 μM” value is “++ (“++” means ≥33% and <66%)”. Further, on hERG, the “hERG % Remaining 100 μM” value is “++ (“++” means ≥33% and <66%)”; the IC50 was at least 50 µM.

Turning to `CC(C)N(C(=O)c1cc(F)ccc1Oc1cncnc1N1CC2(CCN(C[C@@H]3CC[C@@H](NS(=O)(=O)C(C)C)CO3)CC2)C1)C(C)C` [Compound 14, 5-fluoro-N,N-diisopropyl-2-((4-(7-(((2S,5R)-5-((1-methylethyl)sulfonamido)tetrahydro-2H-pyran-2-yl)methyl)-2,7-diazaspiro[3.5]nonan-2-yl)pyrimidin-5-yl)oxy)benzamide], at Menin-MLL, the concentration for a half-maximal effect (EC50) was under 0.05 µM and the Ki is under 0.001 µM. Moreover, at hERG, the “hERG % Remaining 3 μM” value is given as “+++ (“+++” means ≥66%)”; the “hERG % Remaining 10 μM” value is listed as “+++ (“+++” means ≥66%)”; the “hERG % Remaining 30 μM” value was “++ (“++” means ≥33% and <66%)”; the “hERG % Remaining 100 μM” value was “+ (“+” means <33%)”. The same compound gave an IC50 at hERG of 25 to 50 µM.

For `CC(C)N(C(=O)c1cc(F)ccc1Oc1cncnc1N1CC2(CCN(C[C@@H]3CC[C@@H](NS(=O)(=O)C4CC4)CO3)CC2)C1)C(C)C` [Compound 15, 2-((4-(7-(((2S,5R)-5-(cyclopropanesulfonamido)tetrahydro-2H-pyran-2-yl)methyl)-2,7-diazaspiro[3.5]nonan-2-yl)pyrimidin-5-yl)oxy)-5-fluoro-N,N-diisopropylbenzamide], at Menin-MLL, the EC50 is under 0.05 µM and the Ki is under 0.001 µM. Further, on hERG, the “hERG % Remaining 3 μM” value is “+++ (“+++” means ≥66%)”; the “hERG % Remaining 10 μM” value is listed as “+++ (“+++” means ≥66%)”; the “hERG % Remaining 30 μM” value was “++ (“++” means ≥33% and <66%)”; the “hERG % Remaining 100 μM” value is listed as “+ (“+” means <33%)”. This compound yielded an IC50 against hERG of 25 to 50 µM.

Consider `CC(C)N(C(=O)c1cc(F)ccc1Oc1cncnc1N1CC2(CCN(C[C@@H]3CC[C@@H](NS(=O)(=O)C4COC4)CO3)CC2)C1)C(C)C` [Compound 16, 5-fluoro-N,N-diisopropyl-2-((4-(7-(((2S,5R)-5-(oxetane-3-sulfonamido)tetrahydro-2H-pyran-2-yl)methyl)-2,7-diazaspiro[3.5]nonan-2-yl)pyrimidin-5-yl)oxy)benzamide], for which, on Menin-MLL, the EC50 was under 0.05 µM and the Ki was under 0.001 µM. On hERG, the “hERG % Remaining 10 μM” value is recorded as “+++ (“+++” means ≥66%)” and the “hERG % Remaining 30 μM” value was “+++ (“+++” means ≥66%)”.

On to `CCS(=O)(=O)N[C@@H]1CC[C@@H](CN2CCC3(CC2)CN(c2ncncc2Oc2ccc(F)cc2C(=O)N(C(C)C)C2CC(F)C2)C3)OC1` (stereo partly drawn) [Compound 244, 2-((4-(7-(((2S,5R)-5-(ethylsulfonamido)tetrahydro-2H-pyran-2-yl)methyl)-2,7-diazaspiro[3.5]nonan-2-yl)pyrimidin-5-yl)oxy)-5-fluoro-N-((1s,3s)-3-fluorocyclobutyl)-N-isopropylbenzamide], for which, on hERG, the “hERG % Remaining 10 μM” value was “+++ (“+++” means ≥66%)”; the “hERG % Remaining 30 μM” value was “++ (“++” means ≥33% and <66%)”.

In the case of `CCS(=O)(=O)N[C@@H]1CC[C@@H](CN2CCC3(CC2)CN(c2ncncc2Oc2ccc(F)cc2C(=O)N(C(C)C)[C@H]2C[C@H](O)C2)C3)OC1` [Compound 259, 2-((4-(7-(((2S,5R)-5-(Ethylsulfonamido)tetrahydro-2H-pyran-2-yl)methyl)-2,7-diazaspiro[3.5]nonan-2-yl)pyrimidin-5-yl)oxy)-5-fluoro-N-((1r,3r)-3-hydroxycyclobutyl)-N-isopropylbenzamide], at Menin-MLL, the EC50 is under 0.05 µM and the Ki was under 0.001 µM.

On Menin-MLL, `CCS(=O)(=O)N[C@@H]1CC[C@@H](CN2CCC3(CC2)CN(c2ncncc2Oc2ccc(F)cc2C(=O)N(c2ccccc2)C(C)C)C3)OC1` [Compound 260, 2-((4-(7-(((2S,5R)-5-(Ethylsulfonamido)tetrahydro-2H-pyran-2-yl)methyl)-2,7-diazaspiro[3.5]nonan-2-yl)pyrimidin-5-yl)oxy)-5-fluoro-N-isopropyl-N-phenylbenzamide] displayed an EC50 of under 0.05 µM.

`CCS(=O)(=O)N[C@@H]1CC[C@@H](CN2CCC3(CC2)CN(c2ncncc2Oc2ccc(F)cc2C(=O)N(c2ccccc2)c2ccccc2)C3)OC1` [Compound 261] returned an EC50 on Menin-MLL of under 0.05 µM.

Take `CCN(C(=O)c1cc(F)ccc1Oc1cncnc1N1CC2(CCN(C[C@H]3CC[C@H](NS(=O)(=O)CC)CC3)CC2)C1)C(C)C` [SNDX-5613]: at hERG, the “hERG % Remaining 1 μM” value was “+++ (“+++” means ≥66%)”; the “hERG % Remaining 3 μM” value is “+++ (“+++” means ≥66%)”; the “hERG % Remaining 10 μM” value was “++ (“++” means ≥33% and <66%)”; the “hERG % Remaining 30 μM” value is “++ (“++” means ≥33% and <66%)”. Also, at hERG, the “hERG % Remaining 100 μM” value is “+ (“+” means <33%)” and the IC50 was under 25 µM.

Source of the values: patent US11919901B2 (Syndax Pharmaceuticals, Inc., priority 2021, dated 2024).
